From patent US9995734B2, “Human T cell line assay for evaluating the immunologic identity of glatiramer acetate preparations” (Mylan Inc., priority 2013, dated 2018) come the findings set out here.

“And” between values parts separate entries of the source, which are not always exact repeats. Equal entries are not always repeated.

Common to all, as to assay type: cell-based, human
For test [1], the system named is Donor 4 COP T-Cell Lines. Description: ATP proliferation assay (CellTiter Glo), Donor 4 COP T-cell lines, incl. reactivity to non-canonical GA peptides. To be noted: for Non-Canonical Peptide Non-Reactivity: proliferation <2 times no antigen control; for Proliferation (luminescent ATP assay), Mean: T-cell line 205-1F4, Day 71, autologous B-LCL; for Reactivity (proliferation), Mean: T-cell line 205-1H3, 0 μg/mL 4121.0.

The subject of test [2] is Donor 3 COP T-Cell Lines. Description: ATP proliferation assay (CellTiter Glo), Donor 3 COP T-cell lines, incl. reactivity to non-canonical GA peptides. Conditions: for Non-Canonical Peptide Non-Reactivity: proliferation <2 times no antigen control. For orientation: In ATP-based viability assays light output follows the ATP content of the culture.
Test [3] concerns Donor 3 GMA T-Cell Lines. Description: ATP proliferation assay (CellTiter Glo), Donor 3 GMA T-cell lines, incl. reactivity to non-canonical GA peptides. To be noted: Day 50 of culturing.
The test system of test [4] is Donor 1 COP T-Cell Lines. Description: Multiplex bead cytokine assay (FlowCytoMix), Donor 1 COP T-cell lines. Conditions: 222-2D8, 222-1H12, 222-2F12; Day 56; 48 hours; 1, 3, 10 μg/mL. The procedure:
Culture medium was removed from cultures prepared as for proliferation assay and utilized to measure cytokine production. In most cases culture medium was collected 18-24 hours after mixing T-cells, APC, and stimulating antigen. Cytokine production was measured by ELISA or bead assay. For measuring cytokine production, 100-150 μL culture medium (100 μL if culture was to be continued, otherwise 150 μL) was removed from each well. In some cases, the culture was continued 48 hours, for a total of 72 hours of culture, and the proliferative response measured.
The concentration of multiple cytokines was measured simultaneously using FlowCytoMix™ kits (eBioscience, San Diego Calif.). These are fluorescent bead based assays consisting of beads conjugated to anti cytokine antibodies. Beads specific for each cytokine are distinguished by size and fluorescence at 670 run. Cytokine bound to each bead is detected using a phycoerythrin conjugated antibody so that the fluorescence at 585 nm reflects the concentration of cytokine in the sample. Two kits were utilized which measured different cytokine panels. The TH1/TH2 kit measures IFN-γ, IL-1β, IL-2, IL-4, IL-5, IL-6, IL-8, IL-10, IL-12p70, TNF-α (TNF) and TNF-β (LT). The TH1/TH2/TH9/TH17/TH22 kit measures […], IL-1β, IL-2, IL-4, IL-5, IL-6, IL-9, IL-10, IL-12p70, IL-13, IL-17, IL-22, and TNF-α (TNF). Both kits were used following the manufacturer's instructions.
IL-12p70, IFN-γ, IL-2, IL-10, IL-8, IL-6, IL-5, IL-4, IL-1β, TNF-α (TNF), and TNF-β (LT) secretion were measured in response to stimulation with 1, 3, or 10 μg/mL GMA, or 1, 3, or 10 μg/mL COP, as well as a no-antigen control and an MBP control, in the presence of autologous EBV-transformed B-LCL.

Take poly (Glu-Ala; 6:4) [GA 64]: the “Non-Canonical Peptide Non-Reactivity” value in test [1] (205-1F4) is recorded as “GA 64”; in test [1] (205-1H3), “GA 64”; in test [2] (165-C4C), “GA64”; in test [2] (165-F3C) it was “GA 64”; in test [2] (165-F6C), “GA64”. The “Nonreactive T-Cell Line” value in test [1] (Donor 4 COP lines, stimulation with the non-canonical GA peptide) is 205-1F4 (Donor 4) and 205-1H3 (Donor 4); in test [2] (Donor 3 COP lines, stimulation with the non-canonical GA peptide), 165-C4C (Donor 3) and 165-F3C (Donor 3) and 165-F6C (Donor 3). In addition, the “Proliferation (luminescent ATP assay), Mean” value in test [1] (1 μg/mL antigen) is listed as 2544; in test [1] (3 μg/mL antigen) it was 2261; in test [1] (10 μg/mL antigen) it was 2080; in test [2] (T-cell line 165-C4C, 1 μg/mL antigen, Day 66 of culture, 0 μg/mL 1881) it was 2205; in test [2] (T-cell line 165-C4C, 3 μg/mL antigen, Day 66 of culture, 0 μg/mL 1881) it was 2229; in test [2] (T-cell line 165-C4C, 10 μg/mL antigen, Day 66 of culture, 0 μg/mL 1881), 2244. For the same substance, the “Proliferation (luminescent ATP assay), Mean” value came out at 1791 in test [2] (T-cell line 165-F3C, 1 μg/mL antigen, Day 77 of culture, 0 μg/mL 1563); 1943 in test [2] (T-cell line 165-F3C, 3 μg/mL antigen, Day 77 of culture, 0 μg/mL 1563); 1870 in test [2] (T-cell line 165-F3C, 10 μg/mL antigen, Day 77 of culture, 0 μg/mL 1563). Also, the “Reactivity (proliferation), Mean” value was 4012.0 in test [1] (1 μg/mL antigen), 4246.0 in test [1] (3 μg/mL antigen) and 2054.3 in test [1] (10 μg/mL antigen).

In the case of EKPKVEAYKAAAAPA [STERN], the “proliferation response to non-canonical peptides” value in test [2] (165-E3C, separate experiment) was “did not react”. Besides, the “Proliferation (luminescent ATP assay), Mean” value in test [3] (T-cell line 165-05G, 1 μg/mL antigen, No Antigen Value 2149) turned out to be 1750 RLU; in test [3] (T-cell line 165-05G, 3 μg/mL antigen, No Antigen Value 2149) it was 1606 RLU; in test [3] (T-cell line 165-05G, 10 μg/mL antigen, No Antigen Value 2149) it was 1650 RLU; in test [3] (T-cell line 165-05G, 30 μg/mL antigen, No Antigen Value 2149) it was 1572 RLU; in test [3] (T-cell line 165-E9G, 1 μg/mL antigen, No Antigen Value 1742), 1673 RLU; in test [3] (T-cell line 165-E9G, 3 μg/mL antigen, No Antigen Value 1742), 1480 RLU. For the same substance, the “Proliferation (luminescent ATP assay), Mean” value came to 1487 RLU in test [3] (T-cell line 165-E9G, 30 μg/mL antigen, No Antigen Value 1742); 1471 RLU in test [3] (T-cell line 165-E9G, 10 μpg/mL antigen, No Antigen Value 1742); 2465 RLU in test [3] (T-cell line 165-F10G, 1 μg/mL antigen, No Antigen Value 3752); 2389 RLU in test [3] (T-cell line 165-F10G, 3 μg/mL antigen, No Antigen Value 3752); 2030 RLU in test [3] (T-cell line 165-F10G, 10 μg/mL antigen, No Antigen Value 3752); 2583 RLU in test [3] (T-cell line 165-F10G, 30 μg/mL antigen, No Antigen Value 3752). Moreover, the “Proliferation (luminescent ATP assay), Mean” value in test [3] (T-cell line 165-H11G, 1 μg/mL antigen, No Antigen Value 1485) is 2279 RLU; in test [3] (T-cell line 165-H11G, 3 μg/mL antigen, No Antigen Value 1485), 2118 RLU; in test [3] (T-cell line 165-H11G, 10 μg/mL antigen, No Antigen Value 1485), 2418 RLU; in test [3] (T-cell line 165-H11G, 30 μg/mL antigen, No Antigen Value 1485), 2296 RLU.

For “L-glutamic acid polymer with L-alanine, L-lysine and L-tyrosine, acetate (salt) [GA]”, the “cytokine secretion, dose comparison” value in test [4] is listed as “highest levels of cytokines”.
